Data set [1] in a line: Steady state volume of distribution in rat after administration of 1 mg/kg (iv) and 5 mg/kg (po). The data set is classed as ADME, organism-based. The following applies: in vivo, read-out: Vss.
A short description of data set [2]: Maximum plasma concentration of compound in rat after peroral administration of 5 mg/kg. The data set is classed as ADME, organism-based. The arrangement: dose 5 mg/kg, route oral. The settings on record: po.
A short description of data set [3]: Total clearance of compound in rat after administration of 1 mg/kg (iv) and 5 mg/kg (po). The data set is classed as ADME, organism-based. The settings on record: in vivo.
A short description of a further data set: in vivo. The following applies: rat, po, 5 mg/kg.

We go through six molecules from ChEMBL document CHEMBL1141171, “Selective estrogen receptor modulators with conformationally restricted side chains. Synthesis and structure-activity relationship of ERalpha-selective tetrahydroisoquinoline ligands” (J Med Chem, 2005).

For orientation: Cmax means the highest concentration seen after dosing. What is called bioavailability is the share of a dose that reaches the circulation, judged against a reference dose that is usually intravenous. Lower therefore signals little systemic uptake.

On to `Oc1ccc2c(c1)CCN(c1ccccc1)C2c1ccc(OCCN2CCCCC2)cc1` (stereo unspecified), for which, in data set [1], the Vd was 13.8 L/kg. In data set [2], this molecule came in with a peak concentration (Cmax) of 31 nM. In data set [3], this molecule displayed a clearance of 51.9 mL/min/kg.
With `CN1CCC(c2ccc(C3c4ccc(O)cc4CCN3c3ccc(F)cc3)cc2)CC1` (stereo unspecified), the Vd in data set [1] came to 15.8 L/kg. Moreover, in data set [2], the highest level (Cmax) was 26.5 nM. In data set [3], this molecule returned a clearance of 52.4 mL/min/kg. Moreover, the bioavailability in “in vivo” turned out to be 64%.
For `Oc1ccc2c(c1)CCN(c1ccccc1)C2c1ccc(N2CCN3CCCCC3C2)cc1` (stereo unspecified), the Vd in data set [1] was found to be 9.2 L/kg. In data set [2], the concentration peaked (Cmax) at 29.7 nM. The clearance in data set [3] stood at 28.4 mL/min/kg. Moreover, in “in vivo”, the bioavailability was 49%.
The matching figures for `CC(C)N1CCN(c2ccc(C3c4ccc(O)cc4CCN3c3cccc(O)c3)cc2)CC1` (stereo unspecified): 5 L/kg, 57.2 nM, 17.9 mL/min/kg and 44%.
On to `Oc1ccc2c(c1)CC[C@H](c1ccccc1)[C@@H]2c1ccc(OCCN2CCCC2)cc1` [LASOFOXIFENE], for which, in data set [1], the Vd was found to be 14.7 L/kg. Besides, the Cmax in data set [2] stood at 15.5 nM. Also, the clearance in data set [3] is 55.7 mL/min/kg.
For the molecule `O=C(c1ccc(OCCN2CCCCC2)cc1)c1c(-c2ccc(O)cc2)sc2cc(O)ccc12` [RALOXIFENE], in data set [1], the Vd is 17.6 L/kg. The molecule also displayed a maximum concentration (Cmax) in data set [2] of 7.5 nM. The molecule further displayed a clearance in data set [3] of 158 mL/min/kg.
